{"source": "patent US5733913A", "about": "“6-Aryl pyrido[2,3-d] pyrimidines and naphthyridines for inhibiting protein tyrosine kinase mediated cellular proliferation” (priority 1995, dated 1998)", "key": {"[1]": {"system": "Rat aorta smooth muscle cells (RASMC)", "test": "[3H]-Thymidine incorporation assay in RASMC", "type": "cell-based", "details": "read-out: Inhibition of Growth Factor Stimulated Uptake of [3H]-thymidine (IC50)", "description": "Cell Culture Rat aorta smooth muscle cells (RASMC) were isolated from the thoracic aorta of rats and explanted according to the method of Ross, J. Cell. Biol., 30:172-186 (1971). Cells were grown in Dulbecco's modified Eagle's medium (DMEM, Gibco) containing 10% fetal calf serum (FBS, Hyclone, Logan, Utah), 1% glutamine (Gibco) and 1% penicillin/streptomycin (Gibco). Cells were identified as smooth muscle cells by their \"hill and valley\" growth pattern and by fluorescent staining with a monoclonal antibody specific for SMC […] (Sigma). RASMC were used between passages 5 and 20 for all experiments. Test compounds were prepared in dimethylsulfoxide (DMSO) in order to achieve consistency in the vehicle and to ensure compound solubility. Appropriate DMSO controls were simultaneously evaluated with the test compounds. […] RASMC were plated into a 24-well plate (30,000 cells/well) in DMEM with 10% FBS. After 4 days, cells reached confluence and were made quiescent by incubation in DMEM/F12 medium (Gibco) containing 0.2% FBS for another 2 days. […] […] The acid-insoluble fraction was lysed in 0.75 mL 0.25N NaOH and the radioactivity determined by liquid scintillation counting. IC50 values were determined graphically."}, "[2]": {"target": "T1, C-src kinase (Homo sapiens, UniProt P12931)", "T1 construct": "made in house; host or cells: baculovirus-infected insect cells", "T1 sequence (P12931 whole entry)": "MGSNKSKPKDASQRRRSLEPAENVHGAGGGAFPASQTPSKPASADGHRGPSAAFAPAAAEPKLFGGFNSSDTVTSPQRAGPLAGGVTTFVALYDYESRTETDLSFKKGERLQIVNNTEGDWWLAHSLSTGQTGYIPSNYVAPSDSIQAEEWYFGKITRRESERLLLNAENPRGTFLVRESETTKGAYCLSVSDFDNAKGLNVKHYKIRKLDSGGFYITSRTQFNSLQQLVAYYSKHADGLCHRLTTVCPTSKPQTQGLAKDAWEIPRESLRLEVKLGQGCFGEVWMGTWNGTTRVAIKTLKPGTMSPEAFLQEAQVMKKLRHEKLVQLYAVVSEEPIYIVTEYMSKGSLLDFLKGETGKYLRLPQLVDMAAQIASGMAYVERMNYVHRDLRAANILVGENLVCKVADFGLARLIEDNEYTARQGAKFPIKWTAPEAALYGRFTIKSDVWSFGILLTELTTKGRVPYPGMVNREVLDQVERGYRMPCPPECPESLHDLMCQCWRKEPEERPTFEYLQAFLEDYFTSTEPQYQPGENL", "test": "C-src kinase assay", "type": "biochemical", "details": "read-out: Inhibition of Protein Tyrosine Kinases, C-src, IC50", "procedure,_shortened": "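Baculovirus-expressed c-src immunopurified on antibody-coated latex beads, assayed in 40 mM Tris pH 7.5, 5 mM MgCl2 with poly GluTyr substrate and 5 μM ATP plus 32P-ATP. Reaction 10 min at room temperature, TCA-quenched, filtered; incorporated label counted by scintillation.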"}, "[3]": {"target": "T2, mouse PDGF-β receptor tyrosine kinase (Mus musculus, UniProt P05622)", "T2 construct": "a fragment of DNA that codes for the intracellular tyrosine kinase domain; made in house; host or cells: Sf9 insect cells (baculovirus), cell lysate", "T2 sequence (P05622 599-961 limits assumed)": "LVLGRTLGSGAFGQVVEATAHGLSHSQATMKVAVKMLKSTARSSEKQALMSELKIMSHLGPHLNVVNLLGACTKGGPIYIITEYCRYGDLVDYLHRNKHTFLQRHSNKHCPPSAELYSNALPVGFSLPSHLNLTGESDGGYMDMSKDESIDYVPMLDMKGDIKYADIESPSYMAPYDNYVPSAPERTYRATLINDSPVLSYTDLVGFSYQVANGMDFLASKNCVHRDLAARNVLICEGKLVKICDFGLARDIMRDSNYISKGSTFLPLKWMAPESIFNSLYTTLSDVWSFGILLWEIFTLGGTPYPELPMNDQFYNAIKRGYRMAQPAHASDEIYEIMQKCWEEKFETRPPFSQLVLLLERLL", "test": "PDGF receptor tyrosine kinase assay", "type": "biochemical", "details": "read-out: Inhibition of Protein Tyrosine Kinases, PDGF, IC50", "procedure,_shortened": "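Intracellular kinase domains expressed in baculovirus-infected SF9 cells; crude lysate used as enzyme. Inhibitor preincubated 10 min at 25 °C with lysate in pH 7.0 Hepes buffer with 10 mM MnCl2 and poly(Glu-Tyr) 4:1, then γ-32P-ATP (50 μM ATP) added for 10 min at 25 °C. TCA-precipitated 32P on filters counted, no-enzyme background subtracted.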"}, "[4]": {"system": "V-src kinase", "test": "V-src kinase assay", "type": "biochemical", "details": "at 50 μM", "procedure,_shortened": "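Baculovirus-expressed v-src or c-src, immunopurified on antibody-coated latex beads, phosphorylated poly GluTyr with 5 μM ATP including [32P]-ATP in Tris pH 7.5/MgCl2. Reaction ran 10 min at room temperature, TCA/pyrophosphate quench, then filtered. Incorporated label counted by liquid scintillation and compared with solvent control.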"}}, "note": "pIC50: −log10 of the molar value. Read-outs that look alike come from different tables or passages of the source.", "data": [{"smiles": "Cc1ccccc1-c1cc2cnc(N)nc2nc1N", "note": "[Example 90, 6-o-Tolyl-pyrido[2,3-d]pyrimidine-2,7-diamine]", "values": [{"measurement": "pIC50", "setting": "[1]; FGF stimulated", "result": 4.70}, {"measurement": "pIC50", "setting": "[1]; PDGF stimulated", "result": "< 5.00"}, {"measurement": "pIC50", "setting": "[2]", "result": 5.79}, {"measurement": "pIC50", "setting": "[3]", "result": 5.10}, {"measurement": "Inhibition of Protein Tyrosine Kinases, V-src, % Inhibition", "setting": "[4]", "result": 16.8, "unit": "%"}]}]}
